Results from PubChem BioAssay (NCI).
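How tested: cells in 96-well plates exposed to compound for 48 hours at five concentrations. At the GI50, growth is halved. The concentration for full growth arrest is given as TGI.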

Tests used:
Test in all cases: NCI anticancer screen, dose series, 48 h
SK-OV-3 ovarian = test system: SK-OV-3 ovarian
CCRF-CEM leukemia = test system: CCRF-CEM leukemia
MDA-MB-435 = test system: MDA-MB-435
HT29 colon = test system: HT29 colon
T-47D breast = test system: T-47D breast
SNB-75 CNS = test system: SNB-75 CNS
M14 melanoma = test system: M14 melanoma
KM12 colon = test system: KM12 colon
UACC-257 melanoma = test system: UACC-257 melanoma

Q: What does the source list for `C=C1C(=O)O[C@H]2[C@H]1CC/C(CNC(=O)Cc1c[nH]c3ccccc13)=C\CC[C@@]1(C)O[C@@H]21`?
A: GI50 (SK-OV-3 ovarian): 17.6 µM; TGI (SK-OV-3 ovarian): 31.7 µM; GI50 (CCRF-CEM leukemia): 0.303 µM; TGI (CCRF-CEM leukemia): 1.02 µM; GI50 (MDA-MB-435): 0.862 µM; TGI (MDA-MB-435): 13.4 µM; GI50 (HT29 colon): 0.451 µM; TGI (HT29 colon): 11.1 µM; GI50 (T-47D breast): 1.07 µM; TGI (T-47D breast): 8.16 µM; GI50 (SNB-75 CNS): 12.8 µM; TGI (SNB-75 CNS): 35.5 µM; GI50 (M14 melanoma): 0.641 µM; TGI (M14 melanoma): 9.8 µM; GI50 (KM12 colon): 8.44 µM; TGI (KM12 colon): 21.6 µM

Q: Which results are given for `Cc1c2cc[n+](C)cc2c(C)c2c1sc1ccccc12`?
A: TGI (UACC-257 melanoma): 7.01 µM; TGI (SK-OV-3 ovarian): 14.3 µM; TGI (CCRF-CEM leukemia): 13.8 µM; TGI (MDA-MB-435): 6.18 µM; TGI (HT29 colon): 25.4 µM; TGI (T-47D breast): 3.67 µM; TGI (SNB-75 CNS): 0.804 µM; TGI (M14 melanoma): 14.2 µM; TGI (KM12 colon): 2.97 µM

Q: Which results are given for `Cc1ccc([N+](=O)[O-])cc1NC(=O)Nc1cccc(F)c1`?
A: GI50 (UACC-257 melanoma): 4.23 µM; TGI (UACC-257 melanoma): > 100 µM; GI50 (SK-OV-3 ovarian): 13.1 µM; TGI (SK-OV-3 ovarian): 49.4 µM; GI50 (CCRF-CEM leukemia): 3.96 µM; TGI (CCRF-CEM leukemia): > 100 µM; GI50 (MDA-MB-435): 3.8 µM; TGI (MDA-MB-435): > 100 µM; GI50 (HT29 colon): 4.35 µM; TGI (HT29 colon): > 100 µM; GI50 (T-47D breast): 3.45 µM; TGI (T-47D breast): > 100 µM; GI50 (SNB-75 CNS): 11.6 µM; TGI (SNB-75 CNS): 37.1 µM; GI50 (M14 melanoma): 22.1 µM; TGI (M14 melanoma): > 100 µM; GI50 (KM12 colon): 3.67 µM; TGI (KM12 colon): 48.7 µM

Q: What does the source list for `COc1ccc2[nH]c(=O)c3c4ccccc4cn3c2c1`?
A: GI50 (UACC-257 melanoma): 2.67 µM; TGI (UACC-257 melanoma): 11.1 µM; GI50 (SK-OV-3 ovarian): 0.451 µM; TGI (SK-OV-3 ovarian): 11.5 µM; GI50 (CCRF-CEM leukemia): 0.322 µM; TGI (CCRF-CEM leukemia): 1.48 µM; GI50 (MDA-MB-435): 0.154 µM; TGI (MDA-MB-435): 0.411 µM; GI50 (HT29 colon): 0.375 µM; TGI (HT29 colon): 1.44 µM; GI50 (T-47D breast): 0.756 µM; TGI (T-47D breast): 3.84 µM; GI50 (SNB-75 CNS): 0.366 µM; TGI (SNB-75 CNS): 9.47 µM; GI50 (M14 melanoma): 0.494 µM; TGI (M14 melanoma): 1.92 µM; GI50 (KM12 colon): 0.323 µM; TGI (KM12 colon): 1.65 µM

Q: Which GI50 (UACC-257 melanoma) does the source give for `CCSCC1CC(O)(c2ccccc2)C(c2ccccc2)C(c2ccc(Cl)cc2)O1` (stereo not given) here?
A: 1.83 µM

Q: What about the TGI (UACC-257 melanoma) of the same compound?
A: 3.95 µM

Q: What about the GI50 (SK-OV-3 ovarian) of the same compound?
A: 2.5 µM

Q: What about the TGI (SK-OV-3 ovarian) of the same compound?
A: 7.33 µM

Q: What about the GI50 (CCRF-CEM leukemia) of the same compound?
A: 2.03 µM

Q: What about the TGI (CCRF-CEM leukemia) of the same compound?
A: 6.5 µM

Q: What about the GI50 (MDA-MB-435) of the same compound?
A: 1.74 µM

Q: What about the TGI (MDA-MB-435) of the same compound?
A: 3.84 µM

Q: What about the GI50 (HT29 colon) of the same compound?
A: 1.09 µM

Q: What about the TGI (HT29 colon) of the same compound?
A: 3.17 µM

Q: And the GI50 (T-47D breast)?
A: 1.42 µM

Q: And the TGI (T-47D breast)?
A: 4.57 µM

Q: What about the GI50 (SNB-75 CNS) of the same compound?
A: 1.75 µM

Q: What about the TGI (SNB-75 CNS) of the same compound?
A: 4.72 µM

Q: What about the GI50 (M14 melanoma) of the same compound?
A: 1.81 µM

Q: And the TGI (M14 melanoma)?
A: 3.4 µM

Q: And the GI50 (KM12 colon)?
A: 2.56 µM

Q: What about the TGI (KM12 colon) of the same compound?
A: 6.92 µM

Q: For `COc1ccc(C(=O)c2cc(OC)c(OC)c(OC)c2)cc1`, which TGI (UACC-257 melanoma) is on record?
A: > 100 µM

Q: And the TGI (SK-OV-3 ovarian)?
A: > 13.7 µM

Q: And the TGI (CCRF-CEM leukemia)?
A: > 100 µM

Q: And the TGI (MDA-MB-435)?
A: 0.0424 µM

Q: What about the TGI (HT29 colon) of the same compound?
A: > 100 µM

Q: And the TGI (T-47D breast)?
A: 66.7 µM

Q: What about the TGI (SNB-75 CNS) of the same compound?
A: 0.988 µM

Q: And the TGI (M14 melanoma)?
A: > 100 µM

Q: And the TGI (KM12 colon)?
A: > 33.1 µM

Q: Which GI50 (UACC-257 melanoma) does the source give for `Cc1cccc(NC(=O)CCc2ccc(N3C(N)=NC(N)=NC3(C)C)cc2)c1` here?
A: 28.1 µM

Q: What about the TGI (UACC-257 melanoma) of the same compound?
A: > 100 µM

Q: What about the GI50 (SK-OV-3 ovarian) of the same compound?
A: > 62.9 µM

Q: What about the TGI (SK-OV-3 ovarian) of the same compound?
A: > 100 µM

Q: What about the GI50 (CCRF-CEM leukemia) of the same compound?
A: 1.07 µM

Q: And the TGI (CCRF-CEM leukemia)?
A: > 100 µM

Q: What about the GI50 (MDA-MB-435) of the same compound?
A: 0.56 µM

Q: What about the TGI (MDA-MB-435) of the same compound?
A: > 100 µM

Q: And the GI50 (HT29 colon)?
A: 0.364 µM

Q: What about the TGI (HT29 colon) of the same compound?
A: > 100 µM

Q: And the GI50 (T-47D breast)?
A: 38.6 µM

Q: What about the TGI (T-47D breast) of the same compound?
A: > 100 µM

Q: What about the TGI (SNB-75 CNS) of the same compound?
A: > 100 µM

Q: And the GI50 (M14 melanoma)?
A: > 29.2 µM

Q: What about the TGI (M14 melanoma) of the same compound?
A: > 100 µM

Q: And the GI50 (KM12 colon)?
A: 1.24 µM

Q: And the TGI (KM12 colon)?
A: > 100 µM
